A short description of the series: Period 2 human ADME study: whole blood PK after oral solution [14C]-mobocertinib. Type of series: in vivo. How it is done:
This was a two-period, open-label, single-dose phase 1 study (NCT03811834) conducted at one clinical site (Celerion, Lincoln, Nebraska, USA) in healthy male participants. The primary objective of Period 1 was to determine the absolute bioavailability of mobocertinib following a single oral dose of 160 mg mobocertinib as capsules and a single intravenous (IV) microdose of 50 µg (~ 2 µCi) [^14C]-mobocertinib. The primary objectives of Period 2 were to (1) assess the cumulative excretion of total radioactivity in urine and feces (mass balance); (2) assess the metabolite profile of mobocertinib in plasma, urine, and feces; and (3) characterize the PK of mobocertinib, AP32960, and AP32914 in plasma, whole blood, and urine, and total radioactivity concentration equivalents in plasma and whole blood following a single oral dose of 160 mg (~ 100 µCi) [^14C]-mobocertinib as an oral solution. A sample size of 6 healthy males was selected without statistical considerations and deemed adequate to meet the study objectives. Furthermore, the sample size was limited based on clinical considerations for human ADME studies and to limit exposure to radioactivity.
After a washout of 8–9 days, participants returned to the clinic for Day − 1 of Period 2. On Day 1 of Period 2, after a fast of ≥ 10 h, participants received a single nominal dose of 160 mg (~ 100 µCi; whole body effective dose of 5.3 mrem for a 70-kg human) [^14C]-mobocertinib as a 70 mL oral solution. The actual doses administered ranged from 161 to 163 mg (92.4 to 93.9 µCi). Participants stayed in the clinic from Day − 1 until a discharge criterion (≥ 80% of the total administered radioactive dose was recovered in urine and feces or excretion of radioactivity in urine and feces combined had declined to ≤ 1% of the total administered dose per day for ≥ 2 consecutive intervals) was met, or up to 10 days postdose. To measure the total radioactivity and concentrations of mobocertinib, AP32960, and AP32914 in whole blood and plasma, 4 blood samples were collected predose, and at 0.5, 1, 2, 3, 4, 5, 6, 8, 12, 24, 36, 48, 72, 96, 120, 144, 168, 192, 216, and 240 h postdose; a fifth blood sample was collected for plasma metabolite profiling at predose and 1, 2, 4, 6, 12, 24, 48, 72, 96, 120, and 168 h postdose. Feces and urine were collected predose (feces within 48 h and urine within 24 h prior to dosing), 0–24 h (urine from 0–12 and 12–24 h), and then at 24-hour intervals up to 240 h postdose or until a discharge criterion was met. […] These 2 participants continued with at-home fecal sample collections. One participant provided fecal samples until Day 13 (264–288 h interval) and one participant provided fecal samples until Day 19 (408–432 h interval), after which they met a discharge criterion.
Plasma, whole blood, and urine samples were assayed for mobocertinib, AP32960, and AP32914 concentrations using liquid chromatography-tandem mass spectrometry (Q2 Solutions, Ithaca, New York, USA). The analytical range for each analyte was 0.250 to 500 ng/mL in whole blood and plasma, and 1.00 to 1000 ng/mL in urine. […] Urine and fecal samples were assayed for total radioactivity following the IV dose of [^14C]-mobocertinib in Period 1, and whole blood, plasma, urine, and fecal samples were assayed for total radioactivity following the oral dose of [^14C]-mobocertinib in Period 2 using liquid scintillation counting (LSC; Celerion, Lincoln, Nebraska, USA; LLOQs: Period 1 urine: 0.115–0.118 ng eq/g, feces: 0.720–0.759 ng eq/g; Period 2 whole blood: 87.3–112 ng eq/g, plasma: 116–132 ng eq/mL, urine: 37.8–46.8 ng eq/g, feces: 110–336 ng eq/g across participants). Urine and fecal samples collected in Period 1 that had total radioactivity concentration equivalents below the LLOQ of the Celerion LSC assay were sent to Pharmaron for measurement by AMS (LLOQ: urine: 0.0000253–0.00111 ng eq/g; feces: 0.000404–0.0278 ng eq/g across participants). The LSC and AMS assays were not cross-validated. […]

[1] abbreviates: Period 2, oral solution 160 mg [14C]-mobocertinib, whole blood, geometric mean (geometric CV%).
The mark [2] stands for this setting: Period 2, oral solution 160 mg [14C]-mobocertinib, blood-to-plasma, geometric mean (geometric CV%).
Setting [3] is: male, human, Period 2, oral solution 160 mg [14C]-mobocertinib, whole blood, geometric mean (geometric CV%).

On to `C=CC(=O)Nc1cc(Nc2ncc(C(=O)OC(C)C)c(-c3cn(C)c4ccccc34)n2)c(OC)cc1N(C)CCN(C)C` [Mobocertinib], for which the “geometric mean AUC∞ lower in whole blood compared to plasma” value (Period 2, oral solution 160 mg [14C]-mobocertinib) is 24%. Under setting [1], the CL/F is recorded as 222 (32.6) L/h, the “Molar AUC∞ ratio (analyte vs. total radioactivity)” value was 0.00224 (28.3) and the t1/2z is recorded as 20.5 (25.4) h. Under setting [2], the “B:P Ratio AUC∞” value is 0.763 (17.7) and the “B:P Ratio Cmax” value is 0.794 (17.1). Further, the tmax (Period 2, single oral solution 160 mg (~100 µCi) [14C]-mobocertinib, whole blood, median (range)) is 5.0 (2.0–6.0) h. Besides, the blood plasma ratio (male, human, whole blood and plasma, Period 2, oral solution 160 mg [14C]-mobocertinib, range over time, read-out: arithmetic mean blood-to-plasma (B:P) concentration ratios) lay within 0.6 to 1.04. Under setting [3], the AUC(0-inf) is 729 ng·h/mL, the AUC(0-t) was 718 ng·h/mL and the Cmax was found to be 40.5 ng/mL. Further, the Vd/F (male, human, Period 2, oral solution 160 mg [14C]-mobocertinib, whole blood, geometric mean (geometric CV%), read-out: Vz/F) was found to be 6550 L.

The record behind these values is paper PMC11327196, “A phase 1 study to assess the absolute bioavailability, mass balance, pharmacokinetics, metabolism, and excretion of [^14C]-mobocertinib, an oral inhibitor of EGFR exon 20 insertion mutations, in healthy participants” (Investigational New Drugs, 2024).
